# Assay results: PubChem BioAssay (NCI)
# Values joined by “and” are separate entries in the source; they are usually repeats but may differ in a detail not shown here. Equal values may be shown once.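 These data come from cells grown in 96-well plates and exposed to compound for 48 hours at five concentrations. GI50 is the concentration that inhibits growth by half. At the TGI there is no net growth.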
# Tests used:
# Assay in all cases: DTP human tumour cell line panel, 48 h
# [1] = system: TK-10 renal
# [2] = system: SK-MEL-5 melanoma
# [3] = system: HL-60(TB) leukemia
# [4] = system: DU-145 prostate
# [5] = system: ACHN renal
# [6] = system: SK-MEL-28 melanoma
# [7] = system: HOP-92 NSCLC
# [8] = system: U251 CNS
# [9] = system: LOX IMVI melanoma
# [10] = system: SN12C renal
# [11] = system: SW-620 colon
# [12] = system: OVCAR-3 ovarian
# [13] = system: SK-OV-3 ovarian
# [14] = system: SF-268 CNS
# [15] = system: BT-549 breast
# [16] = system: T-47D breast
# [17] = system: M14 melanoma
# [18] = system: CCRF-CEM leukemia
# [19] = system: OVCAR-4 ovarian
# [20] = system: UO-31 renal
# [21] = system: KM12 colon
# [22] = system: SNB-19 CNS
# [23] = system: UACC-257 melanoma
# [24] = system: MALME-3M melanoma
# [25] = system: IGROV1 ovarian
# [26] = system: MOLT-4 leukemia
# [27] = system: SNB-75 CNS
# [28] = system: HS 578T breast
# [29] = system: EKVX NSCLC
# [30] = system: SF-539 CNS
# [31] = system: MCF7 breast
# [32] = system: K-562 leukemia
# [33] = system: MDA-MB-435
# [34] = system: RPMI-8226 leukemia
# [35] = system: COLO 205 colon
# [36] = system: CAKI-1 renal
# [37] = system: PC-3 prostate
# [38] = system: NCI-H23 lung
# [39] = system: HCT-15 colon
# [40] = system: MDA-MB-231 breast
# [41] = system: NCI-H226 lung
# [42] = system: NCI/ADR-RES ovarian
# [43] = system: A498 renal
# [44] = system: 786-0 renal
# [45] = system: OVCAR-5 ovarian
# [46] = system: NCI-H460 lung
# [47] = system: A549 NSCLC
# [48] = system: UACC-62 melanoma
# [49] = system: NCI-H522 lung
# [50] = system: SK-MEL-2 melanoma
# [51] = system: HCC-2998 colon
# [52] = system: OVCAR-8 ovarian
# [53] = system: MDA-N
# [54] = system: SF-295 CNS
# [55] = system: HT29 colon
# [56] = system: HCT-116 colon
compound,measurement,setting,value
O=C1C=C2C=CC3CC2(O1)C1CCCCN31 (configuration not stated),GI50,[1],17.3 µM and 13.6 µM and 31 µM
same,TGI,[1],79 µM and 41.4 µM and > 100 µM
same,GI50,[2],15.9 µM and 19.9 µM and 34.9 µM
same,TGI,[2],33.5 µM and 54.5 µM and > 100 µM
same,TGI,[3],79.2 µM
same,TGI,[4],50.1 µM and 36.1 µM and > 100 µM
same,GI50,[5],23.9 µM and 15.9 µM and 50.2 µM
same,TGI,[5],> 100 µM and 84.3 µM
same,GI50,[6],17.3 µM and 13.4 µM and 89.3 µM
same,TGI,[6],39 µM and 36.4 µM and > 100 µM
same,TGI,[7],65.8 µM and 48.3 µM and 66 µM
same,GI50,[8],20 µM and 27.7 µM and 60.9 µM
same,TGI,[8],62 µM and 88.8 µM and > 100 µM
same,GI50,[9],17.7 µM and 18 µM and 53.3 µM
same,TGI,[9],44.4 µM and 42.8 µM and > 100 µM
same,GI50,[10],11.8 µM and 14.8 µM and 25 µM
same,TGI,[10],31.4 µM and 33.7 µM and 74.4 µM
same,GI50,[11],16.9 µM and 13.7 µM and 38 µM
same,TGI,[11],42.4 µM and 39 µM and > 100 µM
same,GI50,[12],18.6 µM and 17.3 µM and 40.6 µM
same,TGI,[12],69.6 µM and 48.1 µM and > 100 µM
same,TGI,[13],> 100 µM and 58 µM and 90.6 µM
same,GI50,[14],25.4 µM and 12.7 µM and 41.2 µM
same,TGI,[14],> 100 µM
same,GI50,[15],13.8 µM and 10.8 µM and 37 µM
same,TGI,[15],51.3 µM and 30.3 µM and > 100 µM
same,GI50,[16],22.3 µM and 14.1 µM and 53.4 µM
same,TGI,[16],71.6 µM and 36.2 µM and > 100 µM
same,GI50,[17],28.1 µM and 24 µM and 54.4 µM
same,TGI,[17],> 100 µM
same,GI50,[18],15.3 µM and 11 µM and 28.4 µM
same,TGI,[18],96.6 µM and 41.3 µM and 83.3 µM
same,GI50,[19],25.8 µM and 22.5 µM and 65 µM
same,TGI,[19],> 100 µM and 92.1 µM
same,GI50,[20],14.5 µM and 13.8 µM and 38.3 µM
same,TGI,[20],> 100 µM
same,TGI,[21],70.7 µM and 28.5 µM and 57.6 µM
same,TGI,[22],> 100 µM and 55.5 µM
same,GI50,[23],25 µM and 13.8 µM and 86.8 µM
same,TGI,[23],> 100 µM and 66.7 µM
same,TGI,[24],44.4 µM
same,TGI,[25],95 µM and 30.8 µM and > 100 µM
same,TGI,[26],72.6 µM and 56.1 µM and > 100 µM
same,GI50,[27],24.2 µM and 14.6 µM and 31.7 µM
same,TGI,[27],> 100 µM and 62.3 µM and 95.8 µM
same,GI50,[28],67.8 µM and 29.3 µM and 63.3 µM
same,TGI,[28],> 100 µM
same,GI50,[29],14.1 µM and 11.6 µM and 38.6 µM
same,TGI,[29],57.4 µM and 35.5 µM and > 100 µM
same,GI50,[30],12.7 µM and 27 µM and 23.2 µM
same,TGI,[30],35.8 µM and > 100 µM and 75.4 µM
same,GI50,[31],15.3 µM and 16.8 µM and 32.6 µM
same,TGI,[31],70.4 µM and 39.5 µM and > 100 µM
same,TGI,[32],> 100 µM and 41.8 µM
same,GI50,[33],10.1 µM and 8.06 µM and 22 µM
same,TGI,[33],41.6 µM and 39.3 µM and 66.3 µM
same,GI50,[34],7.45 µM and 15.1 µM and 29.3 µM
same,TGI,[34],58.9 µM and 45.7 µM and > 100 µM
same,GI50,[35],21.6 µM and 15.1 µM and 58.7 µM
same,TGI,[35],73.5 µM and 29.3 µM and > 100 µM
same,GI50,[36],17.7 µM and 22.3 µM and 43.3 µM
same,TGI,[36],78.8 µM and 79.5 µM and > 100 µM
same,TGI,[37],> 100 µM and 73.4 µM
same,GI50,[38],19.9 µM and 15 µM and 31.7 µM
same,TGI,[38],56.7 µM and 43.5 µM and > 100 µM
same,GI50,[39],11.4 µM and 11.8 µM and 31 µM
same,TGI,[39],46.4 µM and 29.4 µM and > 100 µM
same,GI50,[40],19 µM and 21.6 µM and 39.7 µM
same,TGI,[40],> 100 µM and 67.9 µM
same,GI50,[41],19.7 µM and 6 µM and 51.7 µM
same,TGI,[41],> 100 µM and 45.3 µM
same,GI50,[42],21.3 µM and 16.8 µM and 35.4 µM
same,TGI,[42],61.2 µM and 43.4 µM and > 100 µM
same,GI50,[43],10.3 µM and 28.4 µM and 48.9 µM
same,TGI,[43],43.9 µM and 91.5 µM and > 100 µM
same,GI50,[44],16.3 µM and 15.5 µM and 45.6 µM
same,TGI,[44],41.3 µM and 49.8 µM and > 100 µM
same,GI50,[45],34.7 µM and 25.9 µM and > 100 µM
same,TGI,[45],> 100 µM
same,GI50,[46],22.1 µM and 15.1 µM and 31.7 µM
same,TGI,[46],96.3 µM and 67.1 µM and > 100 µM
same,GI50,[47],31.8 µM and 22.9 µM and 64.4 µM
same,TGI,[47],> 100 µM and 63.4 µM
same,GI50,[48],15.8 µM and 13.9 µM and 57.1 µM
same,TGI,[48],42.3 µM and 30.1 µM and > 100 µM
same,GI50,[49],10.1 µM and 11.1 µM and 32.8 µM
same,TGI,[49],28.1 µM and 32.4 µM and > 100 µM
same,TGI,[50],> 100 µM and 44.5 µM and 94.4 µM
same,TGI,[51],40.9 µM and 42.4 µM and 86.4 µM
same,TGI,[52],72.6 µM and 40.2 µM and 93.8 µM
same,GI50,[53],16.8 µM and 18.8 µM and 36 µM
same,TGI,[53],> 100 µM
same,TGI,[54],> 100 µM and 76.1 µM
same,GI50,[55],16.1 µM and 12.9 µM and 34.7 µM
same,TGI,[55],46.2 µM and 27.8 µM and > 100 µM
same,GI50,[56],14.2 µM and 12.5 µM and 36.5 µM
same,TGI,[56],30.3 µM and 26.6 µM and > 100 µM
